These results are taken from article PMC11274943, “Discovery of Benzisothiazolone Derivatives as Bifunctional Inhibitors of HIV-1 Reverse Transcriptase DNA Polymerase and Ribonuclease H Activities” (Biomolecules, 2024).

SMILES strings stand for the structures. Several values for one entry are separate records, joined by “and”; a condition that tells them apart may be missing. Equal values may be shown once.

Broadly, the IC50 is the concentration that inhibits the measured activity by half. The low end stands for greater potency in that assay, the high end for weaker potency in that assay. What is called EC50 is the concentration needed to bring the measured effect to its halfway point. Read a low EC50 as a more potent agent. As usually defined, the CC50 is the concentration giving 50% cytotoxicity. The low end stands for greater toxicity to the cells, the high end for lower toxicity to the cells.

For series [1], the target named is T1, Y181C HIV-1 RT RNase H activity (Human immunodeficiency virus type 1 group M subtype B, UniProt P04585, Y768C).
T1 construct: made in house
Kind of series: FRET-based RT RNase H cleavage assay, Y181C RT. In kind it is biochemical. As for the experimental part: (§1) WT (wild-type) RT, and RTs harboring the NNRTI-resistant mutations K101E, K103N, Y181C, Y188C, G190A and P236L, were overexpressed and purified to homogeneity as described previously. The RT concentration was determined spectrophotometrically at 280 nm using an absorbance coefficient of 260,450 M^−1·cm^−1. The 7-hydroxy tropolone derivative 19,616 (2,7-dihydroxy 2,4,6-cyclo-heptatrien-1-one) was purchased from Molecular Diversity Preservation International (Basel, Switzerland). Nevirapine was purchased from Selleckchem (Houston, TX, USA). The benzisothiazolone derivatives were procured from MolPort (New York, NY, USA) or Enamine (Kyiv, Ukraine). The DNA and RNA oligonucleotides were synthesized and purified by Integrated DNA Technologies (Coralville, IA, USA). All other reagents were of the highest quality available and were used without further purification.
(§2) The following RNA/DNA T/P substrate was used in the present study: an 18-nucleotide RNA template (RNA-18T: 5′-[…]-3′) was annealed to an 18-nucleotide primer (DNA-18T: 5′-[…]-3′), as described previously. Fluorescein and IowaBlack FQTM were covalently attached to the 3′- and 5′-ter-mini of the RNA and DNA oligonucleotides, respectively.
(§3) The FRET-based RNase H cleavage assays were carried out as described previously. Fluorescence was measured with a SpectraMax M2 microplate spectrofluorometer (Molecular Devices, San Jose, CA, USA) using an excitation wavelength of 490 nm and an emission wavelength of 528 nm. Data were analyzed using SoftMax Pro software, version 4.7.1 (Molecular Devices, San Jose, CA, USA).

For series [2], the system named is Y181C HIV-1 RT RNase H activity. Kind of series: FRET-based RT RNase H cleavage assay, Y181C RT. In kind it is biochemical. The note with it: Y181C RT; fold resistance IC50 mutant/IC50 WT. On the procedure: as §1, §2, §3
Series [3] addresses T2, K103N HIV-1 RT RNase H activity (Human immunodeficiency virus type 1 group M subtype B, UniProt P04585, K690N).
T2 construct: made in house
Kind of series: FRET-based RT RNase H cleavage assay, K103N RT. The class given is biochemical. On the procedure:
as §1, §2, §3

For series [4], the system named is K103N HIV-1 RT RNase H activity. Put plainly: FRET-based RT RNase H cleavage assay, K103N RT. The class given is biochemical. The note with it: K103N RT; fold resistance IC50 mutant/IC50 WT. As for the experimental part: as §1, §2, §3
The target in series [5] is T3, G190A HIV-1 RT RNase H activity (Human immunodeficiency virus type 1 group M subtype B, UniProt P04585, G777A).
T3 construct: made in house
Kind of series: FRET-based RT RNase H cleavage assay, G190A RT. In kind it is biochemical. On the procedure: as §1, §2, §3

The subject of series [6] is G190A HIV-1 RT RNase H activity. Kind of series: FRET-based RT RNase H cleavage assay, G190A RT. In kind it is biochemical. The following applies: G190A RT; fold resistance IC50 mutant/IC50 WT. On the procedure: as §1, §2, §3
The target of series [7] is T4, K101E HIV-1 RT RNase H activity (Human immunodeficiency virus type 1 group M subtype B, UniProt P04585, K688E).
T4 construct: made in house
Put plainly: FRET-based RT RNase H cleavage assay, K101E RT. The class given is biochemical. On the procedure:
as §1, §2, §3

For series [8], the system named is K101E HIV-1 RT RNase H activity. Kind of series: FRET-based RT RNase H cleavage assay, K101E RT. The class given is biochemical. The following applies: K101E RT; fold resistance IC50 mutant/IC50 WT. As for the experimental part:
as §1, §2, §3

Series [9] addresses T5, Y188C HIV-1 RT RNase H activity (Human immunodeficiency virus type 1 group M subtype B, UniProt P04585, Y775C).
T5 construct: made in house
Put plainly: FRET-based RT RNase H cleavage assay, Y188C RT. The class given is biochemical. As for the experimental part:
as §1, §2, §3

In series [10] the test system is Y188C HIV-1 RT RNase H activity. Put plainly: FRET-based RT RNase H cleavage assay, Y188C RT. In kind it is biochemical. The following applies: Y188C RT; fold resistance IC50 mutant/IC50 WT. On the procedure: as §1, §2, §3
Series [11] deals with T6, P236L HIV-1 RT RNase H activity (Human immunodeficiency virus type 1 group M subtype B, UniProt P04585, P823L).
T6 construct: made in house
Put plainly: FRET-based RT RNase H cleavage assay, P236L RT. In kind it is biochemical. As for the experimental part:
as §1, §2, §3

The subject of series [12] is P236L HIV-1 RT RNase H activity. Kind of series: FRET-based RT RNase H cleavage assay, P236L RT. In kind it is biochemical. The following applies: P236L RT; fold resistance IC50 mutant/IC50 WT. As for the experimental part: as §1, §2, §3
A further series relates to HIV-1. Kind of series: Antiviral activity (HIV-1 replication) in TZM-bl cells. In kind it is cell-based. The note with it: Human immunodeficiency virus 1, mean ± SD. On the procedure: The genes for Y181C, Y181I, Y181V and Y181F were cloned into HIV-1LAI. NNRTI susceptibility was determined in TZM-bl cells, as described previously.
(§4) Next, we re-purchased 10 hit compounds with IC50 values < 1.0 µM for the inhibition of RT RNase H activity that were commercially available in sufficient quantities for further analysis. We assessed their antiviral activity and cytotoxicity in TZM-bl cells, as described previously.

The nature of series [13]: Cytotoxicity in TZM-bl cells. In kind it is cell-based. The following applies: human, TZM-bl cell death. As for the experimental part: as §4

For `CCN(CC)S(=O)(=O)c1cccc(-n2sc3ccccc3c2=O)c1` [Compound 4, N,N-diethyl-3-(3-oxobenzo[d]isothiazol-2(3H)-yl)benzenesulfonamide], the IC50 in series [1] worked out at 270 ± 30 nM; in series [3], 830 ± 230 nM; in [5], 310 ± 40 nM; in series [7], 90 ± 30 nM; in series [9], 1100 ± 320 nM; in [11], 310 ± 40 nM. In addition, the “Inhibition of RT RNase H Activity Fold-R” value amounted to 1.0 in series [2]; 3.2 in series [4]; 1.2 in series [6]; 0.3 in [8]; 4.2 in [10]; 1.2 in series [12]. Also, the response in the series with HIV-1 was half-maximal at 3270 ± 490 nM (EC50). The CC50 in series [13] is no less than 100000 nM.
In the case of `CCOC(=O)Cc1csc(-n2sc3ccccc3c2=O)n1` [Compound 2, ethyl 2-(2-(3-oxobenzo[d]isothiazol-2(3H)-yl)thiazol-4-yl)acetate], the IC50 in series [1] was found to be 550 ± 20 nM; in series [3], 240 ± 120 nM; in series [5], 230 ± 20 nM; in series [7], 280 ± 20 nM; in series [9] it was 590 ± 40 nM; in series [11], 210 ± 10 nM. For the same molecule, the “Inhibition of RT RNase H Activity Fold-R” value is given as 4.2 in series [2]; 1.8 in series [4]; 1.8 in series [6]; 2.2 in series [8]; 4.5 in [10]; 1.6 in series [12]. This molecule also displayed an EC50 in the series on HIV-1 of 2680 ± 540 nM. The CC50 in series [13] is no less than 100000 nM.
On to `Cc1ccc(-n2sc3ccccc3c2=O)cc1S(=O)(=O)N1CCCCC1` [Compound 1, 2-(4-methyl-3-(piperidin-1-ylsulfonyl)phenyl)benzo[d]isothiazol-3(2H)-one], for which the IC50 in series [1] turned out to be 470 ± 50 nM; in series [3], 340 ± 40 nM; in series [5], 210 ± 20 nM; in [7], 250 ± 60 nM; in [9], 320 ± 10 nM; in series [11], 220 ± 10 nM. Further, the “Inhibition of RT RNase H Activity Fold-R” value in series [2] is 2.9; in series [4], 2 and 2.1; in series [6], 1.3; in series [8], 1.6; in [10], 2.0; in [12] it was 1.4. In addition, a half-maximal response with HIV-1 (EC50) required 1680 ± 940 nM. In addition, the CC50 in [13] was no less than 100000 nM.
